Here are results for one molecule from patent US9115159B2, “Phosphate compounds, a process for their preparation and pharmaceutical compositions containing them” (LES LABORATOIRES SERVIER, priority 2013, dated 2015).

The subject of data set [1] is human Caco-2 cells. Put plainly: In vitro test on human Caco-2 cells, cellular transport A to B. The format is in vitro ADME. The settings on record: prodrug incubated, 120 minutes. The gist of the method: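 Apical-to-basolateral transport, prodrug or drug dosed apically at 1 or 3 μM in duplicate for 120 minutes. Apical samples at 0 and 120 min and basolateral samples at 120 min quantified by LC-MS/MS (LOQ 2 ng/mL) for prodrug and drug. Papp, predicted human Fabs and percent recovery calculated.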
(In general: Passage across Caco-2 layers is used to estimate intestinal permeability.)

The nature of data set [2]: Solubility in water. The format is physicochemical. The protocol: The solubility of compounds of formula (I) in water was measured and compared with that of compounds of formula (I′).
More specifically, 4-[{[3-(6-{[(3S)-3-(morpholin-4-ylmethyl)-3,4-dihydroisoquinolin-2(1H)-yl]carbonyl}-1,3-benzodioxol-5-yl)-5,6,7,8-tetrahydroindolizin-1-yl]carbonyl}-(phenyl)amino]phenyl disodium phosphate (also referred to as the compound of Example 1) was tested and compared to N-(4-hydroxyphenyl)-3-{6-[((3S)-3-(4-morpholinylmethyl)-3,4-dihydro-2(1H)-isoquinolinyl)carbonyl]-1,3-benzodioxol-5-yl}-N-phenyl-5,6,7,8-tetrahydro-1-indolizine carboxamide (also referred to as the drug from Example 1).
(§1) The solubilities of the compounds were also measured in a medium buffered to physiological pH (cf. Table 3).

Data set [3] deals with cleaved (activated) form of caspase 3. Put plainly: Quantification of the cleaved form of caspase 3 in vivo (MSD ELISA, RS4;11 xenograft tumour lysates). Set-up: species or system mice (SCID strain). To be noted: Table 2, 50 mg/kg oral, sampling time 2 hours, treated versus control mice. The protocol:
The ability of the compounds of formula (I′) to activate caspase 3 is evaluated in a xenograft model of RS4;11 leukaemia cells.
1×10^7 RS4;11 cells are grafted sub-cutaneously into immunosuppressed mice (SCID strain). 25 to 30 days after the graft, the animals are treated orally with the various compounds. After treatment, the tumour masses are recovered and lysed, and the cleaved (activated) form of caspase 3 is quantified in the tumour lysates.
The quantification is carried out using the “Meso Scale Discovery (MSD) ELISA platform” test, which specifically assays the cleaved form of caspase 3. It is expressed in the form of an activation factor corresponding to the ratio between the quantity of cleaved caspase 3 in the treated mice divided by the quantity of cleaved caspase 3 in the control mice.
The ability of the compounds of formula (I) to activate caspase 3 is evaluated in a xenograft model of RS4;11 leukaemia cells in accordance with the protocol given in Example A2.
For orientation: In an ELISA, binding on a coated surface is turned into a signal by an enzyme label.

Data set [4] is described as follows: Pharmacokinetic profile / in vivo conversion after oral administration to SCID mice (plasma, LC-MS/MS). Set-up: species or system female SCID mice. The protocol:
The pharmacokinetic profile of the phosphate compounds of formula (I) is evaluated in a lipid formulation and in aqueous solution in female SCID mice. This is compared to the pharmacokinetic profile of compounds of formula (I′) in a lipid formulation. More specifically, 4-[{[3-(6-{[(3S)-3-(morpholin-4-ylmethyl)-3,4-dihydroisoquinolin-2(1H)-yl]-carbonyl}-1,3-benzodioxol-5-yl)-5,6,7,8-tetrahydroindolizin-1-yl]carbonyl}(phenyl)-amino]phenyl disodium phosphate (also referred to as the compound of Example 1) was tested and compared to N-(4-hydroxyphenyl)-3-{6-[((3S)-3-(4-morpholinylmethyl)-3,4-dihydro-2(1H)-isoquinolinyl)carbonyl]-1,3-benzodioxol-5-yl}-N-phenyl-5,6,7,8-tetrahydro-1-indolizine carboxamide (also referred to as the drug from Example 1).
The compound of Example 1 is prepared in a mixture of anhydrous ethanol/polyethylene glycol 300/water (10/40/50, v/v/v) intended for administration by the p.o. route. The study is carried out in 2 groups of SCID mice to which the compound of Example 1 is administered under the following conditions: • Group 1: 3 mg/kg p.o. (gavage, 10 mL/kg), • Group 2: 25 mg/kg p.o. (gavage, 10 mL/kg).
Blood samples are taken at the following points in time (3 samples per animal and 3 animals for each point in time): 0.25 hr, 0.5 hr, 1 hr, 2 hrs, 6 hrs and 24 hrs after oral administration.
The compound of Example 1 is also administered by the oral route in an aqueous medium to SCID mice, under the following conditions: • Group 1: 30 mg/kg p.o. dissolved in 1 mM sodium carbonate solution (gavage, 10 mL/kg), • Group 2: 100 mg/kg p.o. in water (gavage, 10 mL/kg).
Blood samples are taken at the following points in time (3 animals for each point in time and 1 sample per animal): 0.25 hr, 0.5 hr, 1 hr, 2 hrs, 4 hrs, 6 hrs and 24 hrs after oral administration.
For all formulations of the compound of Example 1, the blood thereby collected is centrifuged and the plasma is transferred to tubes containing 1M hydrochloric acid. The plasma concentrations of the phosphate compound (prodrug) and its hydroxylated homologue (drug) are determined simultaneously using a method of liquid chromatography coupled with mass spectrometric detection (TFC-LC-MS/MS). The limit of detection for both entities is 0.5 ng/mL.
The drug from Example 1 is prepared in a mixture of anhydrous ethanol/polyethylene glycol 300/water (10/40/50, v/v/v) intended for administration by the p.o. route. The study is carried out in several groups of SCID mice to which the drug from Example 1 is administered under the following conditions: • Group 1: 3 mg/kg p.o. (gavage, 10 mL/kg), • Group 2: 30 mg/kg p.o. (gavage, 10 mL/kg), • Group 3: 25 mg/kg p.o. (gavage, 10 mL/kg), • Group 4: 100 mg/kg p.o. (gavage, 10 mL/kg).
Blood samples are taken at the following points in time (3 animals for each point in time and 3 samples per animal for Groups 1-2 and 1 sample per animal for Groups 3 and 4): • p.o.: before administration and then 0.25 hr, 0.5 hr, 0.75 hr, 1 hr, 2 hrs, 4 hrs, 6 hrs, 8 hrs, 16 hrs and 24 hrs after oral administration at 3 and 30 mg/kg, • p.o.: 0.5 hr, 2 hrs, 6 hrs, 16 hrs and 24 hrs after oral administration at 25 mg/kg and 0.5 hr, 1 hr, 2 hrs, 6 hrs, 16 hrs, 30 hrs and 48 hrs after oral administration at 100 mg/kg.
The plasma from the blood samples collected after administration of the lipid formulations of the drug from the compound of Example 1 are analysed by liquid chromatography coupled with mass spectrometric detection. The limit of quantification of the drug from the compound of Example 1 is less than or equal to 0.5 ng/mL.
Non-compartmental pharmacokinetic analysis is carried out on the mean values of the plasma concentrations of the compounds tested. […]

Data set [5] can be described thus: Solubility in aqueous medium buffered to physiological pH (phosphate 0.33M, pH 7.4). Type of data set: physicochemical. The settings on record: phosphate 0.33M, pH = 7.4. The protocol:
as §1

The mark [6] stands for this setting: Example 1 administered 3 mg/kg p.o., lipid formulation.
[7] abbreviates: Example 1 administered 25 mg/kg p.o., lipid formulation.
Where [8] appears, read: Example 1 administered 30 mg/kg p.o., aqueous formulation (1 mM sodium carbonate solution).
The mark [9] stands for this setting: Example 1 administered 100 mg/kg p.o., aqueous formulation (in water).

Values joined by “and” are separate entries in the source; they are usually repeats but may differ in a detail not shown here. Equal values may be shown once.

Turning to `O=C(c1cc(-c2cc3c(cc2C(=O)N2Cc4ccccc4C[C@H]2CN2CCOCC2)OCO3)n2c1CCCC2)N(c1ccccc1)c1ccc(OP(=O)([O-])[O-])cc1.[Na+].[Na+]` [Example 1, 4-[{[3-(6-{[(3S)-3-(Morpholin-4-ylmethyl)-3,4-dihydroisoquinolin-2(1H)-yl]carbonyl}-1,3-benzodioxol-5-yl)-5,6,7,8-tetrahydroindolizin-1-yl]carbonyl}(phenyl)amino]phenyl disodium phosphate], in data set [1] (corresponding drug measured), the “Yield (experiment yield), the drug after incubation of the prodrug” value is recorded as “Yield (%) = 42”. The “Fabs (predicted absorbed fraction in humans), the drug after incubation of the prodrug” value in data set [1] (corresponding drug measured, A to B, 1 or 3 μM) is reported as “Fabs (%) = 71”. Further, the “Papp, compound measured: the prodrug itself” value in data set [1] (A to B, deposited apically at 1 or 3 μM) is “Papp (10^−6 cm/s) = 0.01”. The “Yield (experiment yield), compound measured: the prodrug itself” value in data set [1] (total amount found at the end versus incubated) is recorded as “Yield (%) = 0”. Besides, the solubility in water entry in data set [2] was “greater than or equal to 10 mg/mL and ≥ 12.6 mM”. In addition, the “Activation factor +/− S.E.M.” value in data set [3] was 21.2 +/− 1.3. Also, the “AUCt, compound measured: Example 1” value in data set [4] (setting [6]) was “AUCt (ng · h/mL) = 5”; in data set [4] (setting [7]), “AUCt (ng · h/mL) = 92”; in data set [4] (setting [8]), “AUCt (ng · h/mL) = 879”; in data set [4] (setting [9]), “AUCt (ng · h/mL) = 797”. Besides, the “Tmax, compound measured: Example 1” value in data set [4] (setting [6]) is listed as “Tmax (h) = 0.25”; in data set [4] (setting [7]), “Tmax (h) = 0.25”; in data set [4] (setting [8]), “Tmax (h) = 1.0”; in data set [4] (setting [9]), “Tmax (h) = 2.0”. The “Cmax, compound measured: Example 1” value is listed as “Cmax (ng/mL) = 16” in data set [4] (Example 1 administered 3 mg/kg p.o., lipid formulation (ethanol/PEG 300/water 10/40/50)); “Cmax (ng/mL) = 244” in data set [4] (setting [7]); “Cmax (ng/mL) = 391” in data set [4] (setting [8]); “Cmax (ng/mL) = 359” in data set [4] (setting [9]). Moreover, the “Solubility at 10 μM” value in data set [5] (10 μM) is reported as “Soluble”. Besides, the “Solubility at 20 μM” value in data set [5] (20 μM) is on record as “Soluble”. Also, in data set [5] (50 μM), the “Solubility at 50 μM” value was “Soluble”. Also, in data set [5] (100 μM), the “Solubility at 100 μM” value was “Soluble”.
